Columns and labels:
[1] = test system: organophosphorous agent resistant two-spotted spider mites; assay: Effect on Two-spotted Spider Mite (spray on kidney bean leaves); assay type: in vivo; conditions: 125 ppm, water dispersible powder of Formulation Example 1 sprayed, 17 female adults, 25° C., 65% humidity, 3 days
Method in brief: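 Kidney bean first leaves bearing 17 adult female organophosphate-resistant mites were sprayed with a water-dispersible powder formulation at 125 ppm. Held 3 days at 25 °C, 65% humidity, then adult mortality scored; run in duplicate.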

[2] = test system: acaricide resistant citrus red mites; assay: Effect on Citrus Red Mite (spray on mandarin orange leaves); assay type: in vivo; conditions: 31 ppm, emulsifiable concentrate of Formulation Example 2 sprayed, 10 female adults, 25° C., 65% humidity
Method in brief: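 Acaricide-resistant female adult citrus red mites (10 per leaf) on mandarin orange leaves were sprayed with emulsifiable concentrate diluted to 31 ppm compound. Leaves were held 3 days at 25° C, 65% humidity, then adults were removed. Eggs laid during those 3 days were checked on day 11 for development to adults.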

army worms = assay: Effect on Army Worm (artificial feed test); assay type: in vivo; conditions: 10 μg of compound on 0.2 ml artificial feed, second instar, 25° C., 5 days
Description: Test feeds were prepared by filling plastic test tubes (capacity of 1.4 ml) with 0.2 ml of a commercial artificial feed (Insecta LFS, manufactured by Nosan Corporation). Each of 1% chemical compound solutions was prepared by using DMSO (containing 0.5% tween 20), which was then dropped into the surface of the feed in amount of 10 μg of the respective chemical compounds. 2 army worms, each of which was in the second instar, were inoculated into each of the test tubes, which were then sealed by their plastic caps. After they were left at 25° C. for 5 days, the rate of killed army worms and their feed consumptions were investigated. The test was repeated twice. […] 1-8, 1-9, 1-13, 1-15, 1-17, 1-22, 1-23, 1-27, 1-39, 1-45, 1-46, 1-59, 1-69, 1-72, 1-74, 1-75, 1-79, 1-80, 1-83, 1-95, 1-97, 1-981-100, 1-105, 1-108, 1-114, 1-133, 1-140, 1-147, 1-153, 1-165, 1-166, 1-181, 1-182, 1-183, 1-184, 1-187, 1-189, 1-190,

SMILES | rate of killed adults [1] | killed ... of the adults (eggs laid for 3 days investigated whether they could grow to adults on the eleventh day) [2] | killed 100% of the army worms, or inhibited their feed consumptions, in comparison with a solvent control area, to 10% or less (effective) (army worms) | melting point
FC(F)(F)c1ccc(OC2CCN(c3ccc(C(F)(F)F)cn3)CC2)cc1 [1-75] | 100% | 100% | effective | 
FC(F)(F)c1ccc(N2CCC(Oc3ccc(C(F)(F)F)cc3C(F)(F)F)CC2)nc1 [1-80] | 100% | 100% | effective | 
COCOc1cc(C(F)(F)F)ccc1OC1CCN(c2ccc(C(F)(F)F)cn2)CC1 [1-105, 4-[2-methoxymethoxy-4-(trifluoromethyl)-phenoxy]-1-[5-(trifluoromethyl)-2-pyridyl]piperidine] | 100% | 100% | effective | 
FC(F)(F)c1ccc(N2CCC(Oc3ccc(C(F)(F)F)cc3OCC3CC3)CC2)nc1 [1-108] | 100% | 100% | effective | 
FC(F)(F)Oc1ccc(OC2CCN(c3ccc(C(F)(F)F)cn3)CC2)cc1 [1-133] | 100% | 100% | effective | 
O=S(=O)(Oc1ccc(OC2CCN(c3ccc(C(F)(F)F)cn3)CC2)cc1)C(F)(F)F [1-153] | 100% | 100% | effective | 
CC(=O)Oc1cc(C(F)(F)F)ccc1OC1CCN(c2ccc(C(F)(F)F)cn2)CC1 [1-167, 4-[2-acetoxy-4-(trifluoromethyl)phenoxy]-1-[5-(trifluoromethyl)-2-pyridyl]piperidine] |  |  |  | 85 to 95 °C
FC(F)(F)c1ccc(N2CCC(Oc3ccc(C(F)(F)F)cc3C3OCCO3)CC2)nc1 [1-181] | 100% | 100% | effective | 
CCCOc1cc(C(F)(F)F)ccc1OC1CCN(c2ccc(C(F)(F)F)cn2)CC1CC (stereo not shown) [1-187] | 100% | 100% | effective | 
COC(C)OCc1cc(C(F)(F)F)ccc1OC1CCN(c2ccc(C(F)(F)F)cn2)CC1C (stereo not shown) [1-189] | 100% | 100% | effective | 
Cc1noc(-c2cc(C(F)(F)F)ccc2OC2CCN(c3ccc(C(F)(F)F)cn3)CC2)n1 [1-190] | 100% | 100% | effective | 

— US8101768B2, “Cyclic amine compound and pest control agent” (Nippon Soda Co., Ltd., priority 2004, dated 2012)
